# In ChEMBL document CHEMBL1201861, “Genomics of Drug Sensitity in Cancer screening data, Wellcome Trust Sanger Institute”:
# Key:
# 786-0 = assay: cells; type: functional, cell-based; conditions: Homo sapiens
# Description: SANGER: Inhibition of human 786-0 cell growth in a cell viability assay.
# SK-MES-1 = assay: cells; type: functional, cell-based; conditions: Homo sapiens;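 note: growth inhibition of human SK-MES-1 cells, read out with a cell viability assay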
# Description: SANGER: Inhibition of human SK-MES-1 cell growth in a cell viability assay.
# HuCCT-1 = assay: cells; type: functional, cell-based, HuCCT1; conditions: Homo sapiens;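 note: growth inhibition of HuCCT-1 cells, read out by a cell viability assay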
# Description: SANGER: Inhibition of human HuCCT1 cell growth in a cell viability assay.
# CAL-51 = assay: cells; type: functional, cell-based; conditions: Homo sapiens;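 note: human CAL-51 cell line, growth inhibition read out via a cell viability assay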
# Description: SANGER: Inhibition of human CAL-51 cell growth in a cell viability assay.
# SF-295 = assay: cells; type: functional, cell-based; conditions: Homo sapiens;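 note: growth inhibition of SF-295 cells, read out with a cell viability assay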
# Description: SANGER: Inhibition of human SF295 cell growth in a cell viability assay.
# SK-MEL3 = assay: cells; type: functional, cell-based, SK-MEL-3; conditions: Homo sapiens;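 note: growth inhibition of human SK-MEL-3 cells, read out with a cell viability assay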
# Description: SANGER: Inhibition of human SK-MEL-3 cell growth in a cell viability assay.
# NCI-H1651 = assay: cells; type: functional, cell-based; conditions: Homo sapiens;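 note: Read-out is a cell viability assay, with IC50 expressing inhibition of NCI-H1651 cell growth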
# Description: SANGER: Inhibition of human NCI-H1651 cell growth in a cell viability assay.
# CaR-1 = assay: cells; type: functional, cell-based; conditions: Homo sapiens;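 note: growth inhibition of human CaR-1 cancer cells, read out with a cell viability assay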
# Description: SANGER: Inhibition of human CaR-1 cell growth in a cell viability assay.
# HuP-T4 = assay: cells; type: functional, cell-based; conditions: Homo sapiens;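 note: cell viability assay measuring how much HuP-T4 cell growth is inhibited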
# Description: SANGER: Inhibition of human HuP-T4 cell growth in a cell viability assay.
# BEN = assay: cells; type: functional, cell-based; conditions: Homo sapiens;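 note: growth inhibition of the BEN cell line, read out with a cell viability assay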
# Description: SANGER: Inhibition of human BEN cell growth in a cell viability assay.
# SJRH30 = assay: cells; type: functional, cell-based; conditions: Homo sapiens;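 note: growth inhibition of human SJRH30 cells, read out with a cell viability assay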
# Description: SANGER: Inhibition of human SJRH30 cell growth in a cell viability assay.
# HO-1-N-1 = assay: cells; type: functional, cell-based; conditions: Homo sapiens;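 note: growth inhibition of human HO-1-N-1 cells, read out with a cell viability assay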
# Description: SANGER: Inhibition of human HO-1-N-1 cell growth in a cell viability assay.
# RMG-I = assay: cells; type: functional, cell-based; conditions: Homo sapiens;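 note: growth inhibition of human RMG-I cells, read out with a cell viability assay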
# Description: SANGER: Inhibition of human RMG-I cell growth in a cell viability assay.
# PANC-03-27 = assay: cells; type: functional, cell-based; conditions: Homo sapiens
# Description: SANGER: Inhibition of human PANC-03-27 cell growth in a cell viability assay.
# NCI-H1693 = assay: cells; type: functional, cell-based; conditions: Homo sapiens;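 note: growth inhibition of the human cell line, read out with a cell viability assay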
# Description: SANGER: Inhibition of human NCI-H1693 cell growth in a cell viability assay.
# LCLC-103H cell line = assay: cells; type: functional, cell-based; conditions: Homo sapiens
# Description: SANGER: Inhibition of human LCLC-103H cell growth in a cell viability assay.
# RVH-421 = assay: cells; type: functional, cell-based; conditions: Homo sapiens
# Description: SANGER: Inhibition of human RVH-421 cell growth in a cell viability assay.
# CHL-1 = assay: cells; type: functional, cell-based; conditions: Homo sapiens;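 note: cell growth inhibition, read out with a cell viability assay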
# Description: SANGER: Inhibition of human CHL-1 cell growth in a cell viability assay.
# OE19 = assay: cells; type: functional, cell-based; conditions: Homo sapiens;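 note: growth inhibition of OE19 cells, measured through a cell viability read-out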
# Description: SANGER: Inhibition of human OE19 cell growth in a cell viability assay.
# COLO-792 = assay: cells; type: functional, cell-based; conditions: Homo sapiens
# Description: SANGER: Inhibition of human COLO-792 cell growth in a cell viability assay.
# GCT = assay: cells; type: functional, cell-based; conditions: Homo sapiens;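 note: GCT cell line proliferation inhibition, read out with a cell viability assay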
# Description: SANGER: Inhibition of human GCT cell growth in a cell viability assay.
# G-401 = assay: cells; type: functional, cell-based; conditions: Homo sapiens
# Description: SANGER: Inhibition of human G-401 cell growth in a cell viability assay.
# KYSE-520 cell line = assay: cells; type: functional, cell-based; conditions: Homo sapiens;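 note: growth inhibition of human KYSE-520 cells, read out with a viability assay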
# Description: SANGER: Inhibition of human KYSE-520 cell growth in a cell viability assay.
# HCC1954 = assay: cells; type: functional, cell-based; conditions: Homo sapiens;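 note: growth inhibition of human HCC1954 cells, read out with a cell viability assay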
# Description: SANGER: Inhibition of human HCC1954 cell growth in a cell viability assay.
# SK-HEP1 = assay: cells; type: functional, cell-based, SK-HEP-1; conditions: Homo sapiens;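 note: cell viability readout used to quantify reduction in proliferation of human SK-HEP-1 cells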
# Description: SANGER: Inhibition of human SK-HEP-1 cell growth in a cell viability assay.
# EFO-21 = assay: cells; type: functional, cell-based; conditions: Homo sapiens;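 note: growth inhibition of EFO-21 cells measured with a viability assay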
# Description: SANGER: Inhibition of human EFO-21 cell growth in a cell viability assay.
# SNU-449 = assay: cells; type: functional, cell-based; conditions: Homo sapiens
# Description: SANGER: Inhibition of human SNU-449 cell growth in a cell viability assay.
# KYSE-70 cell line = assay: cells; type: functional, cell-based; conditions: Homo sapiens;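 note: cell viability assay read-out, with IC50 expressing suppression of KYSE-70 cell growth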
# Description: SANGER: Inhibition of human KYSE-70 cell growth in a cell viability assay.
# U2OS = assay: cells; type: functional, cell-based, U-2-OS; conditions: Homo sapiens;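 note: growth inhibition of human U-2-OS cells, determined with a cell viability assay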
# Description: SANGER: Inhibition of human U-2-OS cell growth in a cell viability assay.
# MDA-MB-361 = assay: cells; type: functional, cell-based; conditions: Homo sapiens
# IGR-1 = assay: cells; type: functional, cell-based; conditions: Homo sapiens;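 note: growth inhibition of human IGR-1 cells, read out with a cell viability assay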
# Description: SANGER: Inhibition of human IGR-1 cell growth in a cell viability assay.
# MDA-MB-157 = assay: cells; type: functional, cell-based; conditions: Homo sapiens
# Description: SANGER: Inhibition of human MDA-MB-157 cell growth in a cell viability assay.
# ABC-1 = assay: cells; type: functional, cell-based; conditions: Homo sapiens;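 note: growth inhibition of human ABC-1 cells, read out by a cell viability assay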
# Description: SANGER: Inhibition of human ABC-1 cell growth in a cell viability assay.
# CHP-212 = assay: cells; type: functional, cell-based; conditions: Homo sapiens
# Description: SANGER: Inhibition of human CHP-212 cell growth in a cell viability assay.
# MKN-1 = assay: cells; type: functional, cell-based; conditions: Homo sapiens;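 note: growth inhibition of human MKN1 cells, read out by a cell viability measurement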
# Description: SANGER: Inhibition of human MKN1 cell growth in a cell viability assay.
# A-375 = assay: cells; type: functional, cell-based; conditions: Homo sapiens;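 note: growth inhibition of A375 cells, read out with a cell viability assay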
# Description: SANGER: Inhibition of human A375 cell growth in a cell viability assay.
# SW837 = assay: cells; type: functional, cell-based; conditions: Homo sapiens;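 note: growth inhibition of SW837 cells, determined with a cell viability assay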
# Description: SANGER: Inhibition of human SW837 cell growth in a cell viability assay.
# SK-MEL-28 = assay: cells; type: functional, cell-based; conditions: Homo sapiens;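 note: growth inhibition of human SK-MEL-28 cells, read out with a cell viability assay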
# Description: SANGER: Inhibition of human SK-MEL-28 cell growth in a cell viability assay.
# KP-4 = assay: cells; type: functional, cell-based; conditions: Homo sapiens;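 note: human KP-4 cells, with growth inhibition read out through a cell viability assay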
# Description: SANGER: Inhibition of human KP-4 cell growth in a cell viability assay.
# THP-1 = assay: cells; type: functional, cell-based, Homo sapiens; conditions: Homo sapiens, THP-1;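 note: growth inhibition of THP-1 cells, read out via a cell viability assay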
# Description: SANGER: Inhibition of human THP-1 cell growth in a cell viability assay.
# NCI-H524 = assay: cells; type: functional, cell-based, Homo sapiens; conditions: Homo sapiens, NCI-H524;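 note: growth inhibition of human NCI-H524 cells, read out through a cell viability assay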
# Description: SANGER: Inhibition of human NCI-H524 cell growth in a cell viability assay.
# BC1 cell line = assay: SANGER: Inhibition of human BC-1 cell growth in a cell viability assay.; type: functional, cell-based; conditions: Homo sapiens, BC1
# MHH-CALL-2 = assay: cells; type: functional, cell-based, Homo sapiens; conditions: Homo sapiens, MHH-CALL-2;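 note: growth inhibition of the cell line, read out in a cell viability assay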
# Description: SANGER: Inhibition of human MHH-CALL-2 cell growth in a cell viability assay.
# MC-CAR = assay: cells; type: functional, cell-based, Homo sapiens; conditions: Homo sapiens, MC-CAR;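 note: growth inhibition of the human MC-CAR cell line, read out by a cell viability assay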
# Description: SANGER: Inhibition of human MC-CAR cell growth in a cell viability assay.
# Daudi = assay: cells; type: functional, cell-based, Homo sapiens; conditions: Homo sapiens, Daudi;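 note: growth inhibition of Daudi cells, read out by a viability assay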
# Description: SANGER: Inhibition of human Daudi cell growth in a cell viability assay.
# NCI-H889 = assay: cells; type: functional, cell-based, Homo sapiens; conditions: Homo sapiens, NCI-H889;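 note: cell growth inhibition of the cell line, read out with a viability assay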
# Description: SANGER: Inhibition of human NCI-H889 cell growth in a cell viability assay.
# NCI-H1694 = assay: cells; type: functional, cell-based, Homo sapiens; conditions: Homo sapiens, NCI-H1694;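 note: cell viability assay measuring inhibition of growth in human NCI-H1694 cells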
# Description: SANGER: Inhibition of human NCI-H1694 cell growth in a cell viability assay.
# WSU-NHL = assay: cells; type: functional, cell-based, Homo sapiens; conditions: Homo sapiens, WSU-NHL;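 note: growth inhibition of human WSU-NHL cells, read out with a cell viability assay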
# Description: SANGER: Inhibition of human WSU-NHL cell growth in a cell viability assay.
# L-540 = assay: cells; type: functional, cell-based, Homo sapiens; conditions: Homo sapiens, L-540;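 note: growth inhibition of the human L-540 cell line, read out with a viability assay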
# Description: SANGER: Inhibition of human L-540 cell growth in a cell viability assay.
# MRK-nu-1 = assay: cells; type: functional, cell-based, Homo sapiens; conditions: Homo sapiens, MRK-nu-1;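 note: cell viability assay measuring growth suppression of human MRK-nu-1 cells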
# Description: SANGER: Inhibition of human MRK-nu-1 cell growth in a cell viability assay.
# CMK = assay: cells; type: functional, cell-based, Homo sapiens; conditions: Homo sapiens, CMK;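 note: growth inhibition of CMK cells, read out as cell viability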
# Description: SANGER: Inhibition of human CMK cell growth in a cell viability assay.
# YT = assay: cells; type: functional, cell-based, Homo sapiens; conditions: Homo sapiens, YT
# Description: SANGER: Inhibition of human YT cell growth in a cell viability assay.
# HC-1 = assay: cells; type: functional, cell-based, Homo sapiens; conditions: Homo sapiens, HC-1;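 note: growth inhibition of HC-1 cells measured by a cell viability assay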
# Description: SANGER: Inhibition of human HC-1 cell growth in a cell viability assay.
# NCI-H1417 = assay: cells; type: functional, cell-based, Homo sapiens; conditions: Homo sapiens, NCI-H1417;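 note: human NCI-H1417 cells, growth inhibition determined with a cell viability readout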
# Description: SANGER: Inhibition of human NCI-H1417 cell growth in a cell viability assay.
# TE-441-T = assay: cells; type: functional, cell-based, Homo sapiens; conditions: Homo sapiens, TE-441-T
# Description: SANGER: Inhibition of human TE-441-T cell growth in a cell viability assay.
compound,measurement,setting,value
NC1(c2ccc(-c3nc4ccn5c(=O)[nH]nc5c4cc3-c3ccccc3)cc2)CCC1 [MK-2206],IC50,786-0,> 4 µM
same,IC50,SK-MES-1,> 4 µM
same,IC50,HuCCT-1,> 4 µM
same,IC50,CAL-51,> 4 µM
same,IC50,SF-295,> 4 µM
same,IC50,SK-MEL3,> 4000 nM
same,IC50,NCI-H1651,> 4 µM
same,IC50,CaR-1,> 4 µM
same,IC50,HuP-T4,> 4000 nM
same,IC50,BEN,> 4 µM
same,IC50,SJRH30,3.69 µM
same,IC50,HO-1-N-1,> 4000 nM
same,IC50,RMG-I,2.16 µM
same,IC50,PANC-03-27,> 4000 nM
same,IC50,NCI-H1693,> 4 µM
same,IC50,LCLC-103H cell line,> 4 µM
same,IC50,RVH-421,3.82 µM
same,IC50,CHL-1,> 4000 nM
same,IC50,OE19,> 4 µM
same,IC50,COLO-792,> 4 µM
same,IC50,GCT,> 4 µM
same,IC50,G-401,1300 nM
same,IC50,KYSE-520 cell line,> 4 µM
same,IC50,HCC1954,> 4 µM
same,IC50,SK-HEP1,> 4 µM
same,IC50,EFO-21,> 4 µM
same,IC50,SNU-449,> 4 µM
same,IC50,KYSE-70 cell line,> 4 µM
same,IC50,U2OS,> 4 µM
same,IC50,MDA-MB-361,578 nM
same,IC50,IGR-1,> 4 µM
same,IC50,MDA-MB-157,> 4 µM
same,IC50,ABC-1,2.33 µM
same,IC50,CHP-212,> 4 µM
CS(=O)(=O)N1CCN(Cc2cc3nc(-c4cccc5[nH]ncc45)nc(N4CCOCC4)c3s2)CC1 [PICTILISIB],IC50,786-0,2.59 µM
same,IC50,MKN-1,> 4 µM
same,IC50,SK-MES-1,2.01 µM
same,IC50,HuCCT-1,> 4 µM
same,IC50,CAL-51,> 4 µM
same,IC50,SF-295,2.32 µM
same,IC50,SK-MEL3,> 4000 nM
same,IC50,NCI-H1651,> 4 µM
same,IC50,CaR-1,> 4 µM
same,IC50,HuP-T4,1610 nM
same,IC50,A-375,> 4000 nM
same,IC50,SW837,> 4 µM
same,IC50,BEN,> 4 µM
same,IC50,SJRH30,> 4 µM
same,IC50,HO-1-N-1,659 nM
same,IC50,RMG-I,> 4 µM
same,IC50,PANC-03-27,1510 nM
same,IC50,NCI-H1693,> 4 µM
same,IC50,SK-MEL-28,1560 nM
same,IC50,LCLC-103H cell line,> 4 µM
same,IC50,RVH-421,> 4 µM
same,IC50,CHL-1,379 nM
same,IC50,OE19,> 4 µM
same,IC50,COLO-792,> 4 µM
same,IC50,GCT,> 4 µM
same,IC50,G-401,1620 nM
same,IC50,KYSE-520 cell line,> 4 µM
same,IC50,HCC1954,> 4 µM
same,IC50,SK-HEP1,> 4 µM
same,IC50,EFO-21,> 4 µM
same,IC50,SNU-449,2.57 µM
same,IC50,KYSE-70 cell line,> 4 µM
same,IC50,U2OS,3.14 µM
same,IC50,MDA-MB-361,439 nM
same,IC50,KP-4,> 4 µM
same,IC50,IGR-1,> 4 µM
same,IC50,MDA-MB-157,2.82 µM
same,IC50,ABC-1,> 4 µM
same,IC50,CHP-212,2.18 µM
CN(C)CCOc1ccc(-c2nc(-c3ccncc3)c(-c3ccc4c(c3)CC/C4=N\O)[nH]2)cc1 [SB590885],IC50,786-0,> 5 µM
same,IC50,SK-MES-1,> 5 µM
same,IC50,HuCCT-1,> 5 µM
same,IC50,CAL-51,> 5 µM
same,IC50,SF-295,> 5 µM
same,IC50,SK-MEL3,818 nM
same,IC50,NCI-H1651,> 5 µM
same,IC50,CaR-1,> 5 µM
same,IC50,HuP-T4,> 5000 nM
same,IC50,A-375,282 nM
same,IC50,BEN,> 5 µM
same,IC50,SJRH30,> 5 µM
same,IC50,HO-1-N-1,> 5000 nM
same,IC50,RMG-I,> 5 µM
same,IC50,PANC-03-27,> 5000 nM
same,IC50,NCI-H1693,> 5 µM
same,IC50,LCLC-103H cell line,> 5 µM
same,IC50,RVH-421,0.621 µM
same,IC50,CHL-1,> 5000 nM
same,IC50,OE19,> 5 µM
same,IC50,COLO-792,> 5 µM
same,IC50,GCT,> 5 µM
same,IC50,G-401,> 5000 nM
same,IC50,KYSE-520 cell line,> 5 µM
same,IC50,HCC1954,> 5 µM
same,IC50,SK-HEP1,> 5 µM
same,IC50,EFO-21,> 5 µM
same,IC50,SNU-449,> 5 µM
same,IC50,KYSE-70 cell line,> 5 µM
same,IC50,U2OS,> 5 µM
same,IC50,MDA-MB-361,> 5000 nM
same,IC50,IGR-1,> 5 µM
same,IC50,MDA-MB-157,> 5 µM
same,IC50,ABC-1,> 5 µM
same,IC50,CHP-212,> 5 µM
COc1cc(N2CCC(N3CCN(C)CC3)CC2)ccc1Nc1ncc(Cl)c(Nc2ccccc2S(=O)(=O)C(C)C)n1 [TAE-684],IC50,THP-1,> 2000 nM
same,IC50,NCI-H524,1640 nM
same,IC50,BC1 cell line,> 2000 nM
same,IC50,MHH-CALL-2,29.5 nM
same,IC50,MC-CAR,> 2000 nM
same,IC50,Daudi,1790 nM
same,IC50,NCI-H889,> 2000 nM
same,IC50,NCI-H1694,> 2000 nM
same,IC50,WSU-NHL,> 2000 nM
same,IC50,L-540,370 nM
same,IC50,MRK-nu-1,> 2000 nM
same,IC50,CMK,255 nM
same,IC50,YT,> 2000 nM
same,IC50,HC-1,> 2000 nM
same,IC50,NCI-H1417,> 2000 nM
same,IC50,TE-441-T,> 2000 nM
